Results taken from ChEMBL document CHEMBL5029180, “Design and synthesis of an oral prodrug alalevonadifloxacin for the treatment of MRSA infection” (Bioorg Med Chem Lett, 2021).

Key:
[1] = Aqueous solubility of compound at pH 7; assay type: physicochemical
[2] = Prodrug activation in human liver S9 fraction assessed as S-(-)-nadifloxacin release measured after 30 to 60 mins by LC-MS/MS analysis; assay type: subcellular; conditions: time 30-60 min
[3] = Prodrug activation in human intestinal S9 fraction assessed as S-(-)-nadifloxacin release measured after 90 mins by LC-MS/MS analysis; assay type: subcellular, Intestine; conditions: s9, 1.5 h
[4] = Prodrug activation in human whole blood assessed as S-(-)-nadifloxacin release measured after 30 to 60 mins by LC-MS/MS analysis; assay type: tissue-based; conditions: time 30-60 min

Row | solubility [1] [mg/mL] | Drug metabolism [2] | Drug metabolism [3] | Drug metabolism [4] | SMILES
1 | < 1 |  |  |  | C[C@H]1CCc2c(N3CCC(O)CC3)c(F)cc3c(=O)c(C(=O)O)cn1c23.N=C(N)NCCC[C@H](N)C(=O)O.O.O.O.O
2 | > 200 |  |  |  | CC(C)[C@H](N)C(=O)OC1CCN(c2c(F)cc3c(=O)c(C(=O)O)cn4c3c2CC[C@@H]4C)CC1
3 | < 1 | Metabolite_Detected | Metabolite_Detected | Metabolite_Detected | CS(=O)(=O)O.C[C@H](N)C(=O)OC1CCN(c2c(F)cc3c(=O)c(C(=O)O)cn4c3c2CC[C@@H]4C)CC1
4 | > 200 |  |  |  | CC(C)[C@H](N)C(=O)OC1CCN(c2c(F)cc3c(=O)c(C(=O)O)cn4c3c2CC[C@@H]4C)CC1.CS(=O)(=O)O
